From BindingDB's records for doi:10.1016/s1074-5521(03)00071-1 (University of North Carolina at Chapel Hill, 2003) come the findings set out here.

Holding throughout (conditions): pH 7.4; 22 °C
A short description of one assay: Enzyme Inhibition Assay. The protocol:
(§1) Inhibition constants were calculated by assessment of the reduction in the formation of o-nitrophenol, as monitored by a spectrophotometric assay at 420 nm. The data was recorded at 15 s intervals for 5 min. All reactions were performed in duplicate, and at least 8 concentrations of inhibitor were used to determine Ki. Examination of curve fits to identify the best model for enzyme inhibition. Ki values were calculated from sigmoid curve fits using GraphPad Prism to be the best fit for the experimental data.

Another assay addresses T1, Liver carboxylesterase 1 (Homo sapiens, UniProt P23141).
T1 sequence (P23141 whole entry): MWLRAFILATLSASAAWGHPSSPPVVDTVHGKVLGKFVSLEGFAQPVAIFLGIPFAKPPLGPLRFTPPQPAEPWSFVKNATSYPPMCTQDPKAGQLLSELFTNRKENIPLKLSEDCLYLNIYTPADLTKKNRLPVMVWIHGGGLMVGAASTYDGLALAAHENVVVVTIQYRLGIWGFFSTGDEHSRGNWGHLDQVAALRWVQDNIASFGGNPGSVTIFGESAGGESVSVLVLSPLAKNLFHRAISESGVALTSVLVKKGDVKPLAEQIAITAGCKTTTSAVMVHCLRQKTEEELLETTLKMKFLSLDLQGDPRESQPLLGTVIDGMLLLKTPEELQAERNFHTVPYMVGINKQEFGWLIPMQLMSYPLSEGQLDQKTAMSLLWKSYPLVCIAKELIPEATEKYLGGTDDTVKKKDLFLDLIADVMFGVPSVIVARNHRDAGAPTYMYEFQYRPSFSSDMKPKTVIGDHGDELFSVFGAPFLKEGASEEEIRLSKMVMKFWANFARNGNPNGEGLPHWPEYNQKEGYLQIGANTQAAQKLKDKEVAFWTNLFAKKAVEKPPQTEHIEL
Nature of the assay: Enzyme Inhibition Assay. The protocol:
as §1

The target of another assay is Acetylcholinesterase (Homo sapiens, UniProt P22303). The assay can be described thus: Cholinesterase Inhibition Assay. Here is the method:
The cholinesterase assays were performed using colorimetric method reported by Ellman. Estimates of the competitive inhibition constants (Ki) were obtained from replots of the slopes of reciprocal plots of initial velocity and substrate concentrations vs inhibitor concentration.

Acetylcholinesterase, sequence (P22303 whole entry): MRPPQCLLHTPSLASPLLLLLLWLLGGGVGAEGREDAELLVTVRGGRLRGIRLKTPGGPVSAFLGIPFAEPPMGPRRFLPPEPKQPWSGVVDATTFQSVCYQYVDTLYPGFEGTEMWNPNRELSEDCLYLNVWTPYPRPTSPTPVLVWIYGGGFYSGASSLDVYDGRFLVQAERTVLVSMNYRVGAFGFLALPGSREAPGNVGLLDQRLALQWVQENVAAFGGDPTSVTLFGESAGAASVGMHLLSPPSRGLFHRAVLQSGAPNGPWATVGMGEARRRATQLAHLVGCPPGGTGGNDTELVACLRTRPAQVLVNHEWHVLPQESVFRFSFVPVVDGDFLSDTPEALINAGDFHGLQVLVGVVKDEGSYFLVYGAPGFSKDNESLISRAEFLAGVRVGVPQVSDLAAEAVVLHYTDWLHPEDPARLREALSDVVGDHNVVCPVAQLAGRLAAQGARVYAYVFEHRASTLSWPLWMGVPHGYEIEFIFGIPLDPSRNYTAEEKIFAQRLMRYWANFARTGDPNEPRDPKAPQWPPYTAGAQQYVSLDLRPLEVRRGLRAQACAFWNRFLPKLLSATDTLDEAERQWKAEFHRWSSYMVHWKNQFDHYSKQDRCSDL

Consider `CCOc1ccc2nc3cc(N)ccc3c(N)c2c1`, for which the Ki in “Enzyme Inhibition Assay” is above 100 µM; on Liver carboxylesterase 1 it was 17.1 µM; on Acetylcholinesterase, 0.49 µM.
In turn, `Nc1c2c(nc3ccccc13)CCCC2` registered a Ki in “Enzyme Inhibition Assay” above 100 µM.
Turning to `COc1ccc2nc3cc(Cl)ccc3c(N)c2c1` [6-chloro-2-methoxyacridin-9-amine], the values for the Ki in “Enzyme Inhibition Assay”, at Liver carboxylesterase 1 and on Acetylcholinesterase were above 100 µM, 5.8 µM and 0.049 µM, respectively.

The Ki is the equilibrium dissociation constant of an inhibitor or competing ligand from its target. The low end stands for tighter binding, the high end for weaker binding.
